Measurements published in patent publication US4064169A, “Bis-(meta-amidinophenoxy)-compounds and pharmacologically acceptable acid addition salts thereof” (Eisai Co., Ltd., priority 1976, dated 1977).
Structures can show the parent of a compound that is named as a salt.

What was measured:
Format in all cases: cell-based
[1] = tested on: fungi of Table 4; test: Antifungal test when a serum is added (summary); conditions: 10% and 30% by volume horse serum
Procedure: Minimal inhibitory concentration (M.I.C.) was determined by preparing the agar plate medium in the same manner of the preceding pharmacological test 1, except for the addition of the horse serum. The concentration of the component in the medium was finally corrected, so that it may amount to the concentration of the component when the horse serum was not added.

[2] = tested on: Trichomonas vaginalis; test: Anti-trichomonal Test; conditions: 72 h, ASAMI medium containing 20% horse serum, 37° C., 3 days, read-out: minimal inhibitory concentration
Procedure: The compound under test was dissolved in aseptic water, and filtered aseptically to prepare a two fold dilution series. Each 2.6 ml ASAMI medium containing 20% of the horse serum were respectively taken into small test tubes. Onto the medium, there were incubated 0.3 ml of the two fold dilution solution of the compounds and 0.1 ml of the suspension of the ASAMI medium of Trichomonas vaginalis which was cultured at 37° C. for 3 days respectively. Incubation was carried out at 37° C. for 3 days to determine the minimal inhibitory concentration.

[3] = tested on: Cryptococcus neoformans; test: Antifungal Test (agar dilution M.I.C.); conditions: Table 1, 27° C.
Procedure: (§1) Respective agar plates were prepared by dissolving compounds under test in aseptic water to make a two fold dilution series, taking each 1 milliliter of said diluted solutions and 9 ml of Sabouraud medium into a petri dish, and sufficiently admixing the same.
(§2) On the other hand, an inoculum was prepared by cultivating an examined fungus (microorganism) on the Sabouraud slant medium and suspending two loopful of the incubated fungus in 10 ml of sterilized physiological saline water.
(§3) One loopful of the inoculum was streaked on the above-mentioned agar plate. After the agar plate was incubated at a defined temperature for a predetermined period of time to determine the minimal inhibitory concentration (M.I.C.).
(§4) Incubation temperature:
(§5) Incubation time: 3 days (72 hours) and […]

[4] = tested on: Saccharomyces cerevisiae; test: Antifungal Test (agar dilution M.I.C.); conditions: Table 1, 27° C.
Procedure: as §1, §2, §3, §4, §5

[5] = tested on: Candida guilliermondii AHU 3654; test: Antifungal Test (agar dilution M.I.C.); conditions: Meyerozyma guilliermondii, Table 1, 27° C.
Procedure: as §1, §2, §3, §4, §5

[6] = tested on: Candida ulitis AHU 3053; test: Antifungal Test (agar dilution M.I.C.); conditions: Table 1, 27° C.
Procedure: as §1, §2, §3, §4, §5

[7] = tested on: Candida tropicalis AHU 3071; test: Antifungal Test (agar dilution M.I.C.); conditions: Table 1, 27° C.
Procedure: as §1, §2, §3, §4, §5

[8] = tested on: gram-negative bacteria such as Escherichia coli NIHJ and Escherichia coli E-15; test: Antibacterial Test (summary); conditions: 18 h, 37° C., read-out: minimal inhibitory concentration
Procedure: (§6) A compound under test was dissolved in aseptic water to prepare a two fold dilution series. Each 1 milliliter of the solution was taken in a petri dish. Nine ml of infusion agar medium (Difco) was added to the solution, thereby preparing the agar plate for test. A pre-culture of each test strain in Tripticase soy broth medium (BBL) at 37° C. for 18 hours was streaked on the above-mentioned agar plate, and the said agar plate was incubated at 37° C. for 18 hours to determine the minimal inhibitory concentration (M.I.C.).

[9] = tested on: Staphylococcus aureus 209-P, Staphylococcus aureus 13-6 and Streptococcus pyogenes; test: Antibacterial Test (summary); conditions: 37° C., 18 hours; read-out: minimal inhibitory concentration
Procedure: as §6

[10] = tested on: Candida albicans NAKAGAWA IFM 4017; test: Antifungal Test (agar dilution M.I.C.); conditions: Candida albicans
Procedure: as §1, §2, §3, §4
(§7) Incubation time: 3 days (72 hours) and
(§8) Incubation time: 3 days (72 hours)
(§9) activity incubation conditions:
(§10) Incubation time 3 days (72 hours)
(§11) Incubation time 7 days (168 hours)
(§12) Incubation time 2 days (48 hours)

[11] = tested on: Candida albicans Yu-1200 IFM 4020; test: Antifungal Test (agar dilution M.I.C.); conditions: Candida albicans
Procedure: as §1, §2, §3, §4, §7, §8, §9, §10, §11, §12

[12] = tested on: Candida albicans AHU 3656; test: Antifungal Test (agar dilution M.I.C.); conditions: for MIC: Candida albicans
Procedure: as §1, §2, §3, §4, §7, §8, §9, §10, §11, §12

[13] = tested on: Staphylococcus aureus 13-6; test: Antibacterial Test (agar dilution M.I.C.); conditions: 136, Table 5, 37° C., 18 hours
Procedure: as §6

[14] = tested on: Salmonella typhimurium 1406; test: Antibacterial Test (agar dilution M.I.C.); conditions: Salmonella enterica, Table 5, 37° C., 18 hours
Procedure: as §6

[15] = tested on: Streptococcus hemolyticus Y-73-5; test: Antibacterial Test (agar dilution M.I.C.); conditions: Streptococcus pyogenes, Y735; Table 5; 37° C., 18 hours
Procedure: as §6

[16] = tested on: Escherichia coli NIHJ JC-1; test: Antibacterial Test (agar dilution M.I.C.); conditions: NIHJJC1, Table 5, 37° C., 18 hours
Procedure: as §6

[17] = tested on: Proteus mirabilis OM-1; test: Antibacterial Test (agar dilution M.I.C.); conditions: OM1, Table 5, 37° C., 18 hours
Procedure: as §6

[18] = tested on: Staphylococcus aureus 209-P JO-1; test: Antibacterial Test (agar dilution M.I.C.); conditions: Table 5, 37° C., 18 hours
Procedure: as §6

[19] = tested on: Pseudomonas aeruginosa; test: Antibacterial Test (agar dilution M.I.C.); conditions: Table 5, 37° C., 18 hours
Procedure: as §6

[20] = tested on: Escherichia coli E-15; test: Antibacterial Test (agar dilution M.I.C.); conditions: E15, Table 5, 37° C., 18 hours
Procedure: as §6

[21] = tested on: Klebsiella pneumonial NO-1; test: Antibacterial Test (agar dilution M.I.C.); conditions: NO1, Table 5, 37° C., 18 hours
Procedure: as §6

[22] = tested on: yeast-like fungi such as Candida, Cryptococcus; test: Antifungal Test (summary)
Procedure: as §1, §2, §3

## N=C(N)c1cccc(OCC2CCC(COc3cccc(C(=N)N)c3)CC2)c1 (centres unmarked) [Compound A, 1,4-Bis-(m,m'-amidinophenoxymethyl)-cyclohexane-dihydrochloride]
[1]
  antifungal activity with serum compared with no serum: nearly same as that when the horse serum was not added
  difference of antifungal activity with vs without horse serum: 1 - 2 dilution step(s)
[2]
  MIC: 200 µg/mL
[3]; 72 h, 3 days incubation
  MIC: 3.13 µg/mL
[3]; 168 h, 7 days incubation
  MIC: 3.13 µg/mL
[4]; 72 h, 3 days incubation
  MIC: < 1.56 µg/mL
[4]; 168 h, 7 days incubation
  MIC: < 1.56 µg/mL
[5]; AHU3654, 72 h, 3 days incubation
  MIC: 25 µg/mL
[5]; AHU3654, 168 h, 7 days incubation
  MIC: 25 µg/mL
[6]; AHU3053, 72 h, 3 days incubation
  MIC: 3.13 µg/mL
[6]; AHU3053, 168 h, 7 days incubation
  MIC: 3.13 µg/mL
[7]; AHU3071, 72 h, 3 days incubation
  MIC: 3.13 µg/mL
[7]; AHU3071, 168 h, 7 days incubation
  MIC: 3.13 µg/mL
[8]
  MIC: 100 to 200 µg/mL
[9]
  MIC: 3.13 to 6.25 µg/mL
[10]; 48 h, Table 3, 37° C., 2 days
  MIC: 0.8 µg/mL
[10]; 72 h, Table 1, 27° C., 3 days incubation
  MIC: 3.13 µg/mL
[10]; 72 h, Table 2, 37° C., 3 days (72 hours)
  MIC: 1.56 µg/mL
[10]; 72 h, Table 3, 27° C., 3 days
  MIC: 3.13 µg/mL
[10]; 72 h, Table 3, 37° C., 3 days
  MIC: 1.56 µg/mL
[10]; 168 h, Table 1, 27° C., 7 days incubation
  MIC: 3.13 µg/mL
[10]; 168 h, Table 3, 27° C., 7 days
  MIC: 3.13 µg/mL
[11]; YU1200IFM4020, 48 h, Table 3, 37° C., 2 days
  MIC: 0.8 µg/mL
[11]; YU1200IFM4020, 72 h, Table 1, 27° C., 3 days incubation
  MIC: < 1.56 µg/mL
[11]; YU1200IFM4020, 72 h, Table 2, 37° C., 3 days (72 hours)
  MIC: 0.8 µg/mL
[11]; YU1200IFM4020, 72 h, Table 3, 27° C., 3 days
  MIC: 1.56 µg/mL
[11]; YU1200IFM4020, 72 h, Table 3, 37° C., 3 days
  MIC: 0.8 µg/mL
[11]; YU1200IFM4020, 168 h, Table 1, 27° C., 7 days incubation
  MIC: 3.13 µg/mL
[11]; YU1200IFM4020, 168 h, Table 3, 27° C., 7 days
  MIC: 3.13 µg/mL
[12]; AHU3656, 48 h, Table 3, 37° C., 2 days
  MIC: 3.13 µg/mL
[12]; AHU3656, 72 h, Table 3, 27° C., 3 days
  MIC: 3.13 µg/mL
[12]; AHU3656, 168 h, Table 3, 27° C., 7 days
  MIC: 6.25 µg/mL
[12]; Table 1, 27° C., 3 days incubation
  M.I.C.: 3.13 µg/mL
[12]; Table 1, 27° C., 7 days incubation
  M.I.C.: 6.25 µg/mL
[12]; Table 2, 37° C., 3 days (72 hours)
  M.I.C.: 3.13 µg/mL
[12]; Table 3, 37° C., 3 days
  M.I.C.: 3.13 µg/mL
[13]
  MIC: 6.25 µg/mL
[14]
  MIC: 200 µg/mL
[15]
  MIC: 6.25 µg/mL
[16]
  MIC: 100 µg/mL
[17]
  MIC: > 200 µg/mL
[18]
  MIC: 3.13 µg/mL
[19]
  MIC: > 200 µg/mL
[20]
  MIC: 200 µg/mL
[21]
  MIC: 200 µg/mL
[22]
  antifungal activity: excellent antifungal activity
[22]; 27° C. and 37° C.
  influence of incubation temperature on antifungal activity: not influenced by the incubation temperature
